# Assay results reported in patent publication US11932870B2, “Compositions and methods for immune cell modulation in adoptive immunotherapies” (Fate Therapeutics, Inc., priority 2016, dated 2024).
# Entries after “also recorded” stand apart in the source; their conditions may differ.
# Experiments:
# Format in all cases: cell-based, human
# viable CD8+ population = test: T cell compound screen: CCR7+CD62L+ cells in the viable CD8+ population (flow cytometry); details: 10 μM, about 6 days, anti-CD3/anti-CD28 beads; hit = Z-score > +2 for percent or absolute number CCR7+CD62L+ in CD8+
# Excerpt: In Vitro T Cell Culture. Fresh leukopaks (AllCells, Alameda, CA) were obtained from healthy donors, from which T cells were negatively selected using the EasySep Human T cell Enrichment Kit (Stem Cell Technologies, Vancouver, Canada). The freshly isolated T cells were aliquoted and cryopreserved. On the day the screens were initiated, T cells were thawed and washed into X-Vivo 15 with 5% human AB serum, IL-2, pen/strep, and additional supplements. Cells were dispensed into flat-bottom 384-well plates at 5×10^5 cells/ml with anti-CD3/anti-CD28 beads. Individual compounds were added at a final concentration of 10 μM to each well from column 3 to column 22 of each plate. Positive and negative controls were added to additional wells. Cells were incubated for about 6 days at 37 degrees with 5% CO2.
# Flow Cytometry. On Day 6 of culture, cells were stained with a fixable viability marker and fluorophore-conjugated antibodies: CD3, CD4, CD8, CD45RA, CD45RO, CD62L, CCR7, CD27, and CD122 (BD Biosciences, San Jose, CA; and BioLegend, San Diego, CA). Fluorescent absolute counting beads (Spherotech, Lake Forest, IL) were added just prior to acquisition. Data acquisition was performed on a BD Fortessa X-20 (BD Biosciences) and data were analyzed using Treestar software (FlowJo, Ashland, OR) and Spotfire (Tibco, Boston, MA).
# These cells are characterized by expression of CCR7 and CD62L. Therefore, cells co-expressing both of these identifying markers were evaluated. Within the viable CD4+ population and viable CD8+ population, the percent of cells co-expressing CCR7 and CD62L was determined. The expression of either CD62L or CCR7 on T cells, as indicative of the desired T cell subsets, have been described as having favorable functional characteristics for CAR-T cell therapy, and potentially other adoptive T cell therapies.
# The number of events in each of these gates relative to the number of absolute counting beads in each sample was calculated, defining a measure of the absolute number of naïve, stem cell memory, or central memory T cells within the CD4+ and/or CD8+ populations. A z-Score relative to the screened compound samples within each 384-well plate was calculated for each of these four values: 1) percent CCR7+CD62L+in CD4+, 2) percent CCR7+CD62L+in CD8+, 3) absolute relative number of CCR7+CD62L+in CD4+, and 4) absolute number of CCR7+CD62L+in CD8+(FIGS. 1A and 1i). Z-scores were also calculated for the percent viability of all cells within each sample and the relative absolute number of cells within each sample. A “Z-Score” is a statistical measurement of a score's relationship to the mean in a group of scores. AZ-score of 0 means the score is the same as the mean. AZ-score can also be positive or negative, indicating whether it is above or below the mean and by how many standard deviations.
# [1] = test system: CD8 T cells transduced with CAR Construct 1; test: Tcm phenotype skewing of CAR-T cells (CD62L, CCR7, CD27 surface expression); details: flow cytometry day 8
# Experimental: Culturing cells in large-scale for phenotypic and exhaustion marker evaluation. Isolated CD8 T cells were activated in bulk on day 0 using anti-CD3/anti-CD28 beads in T cell media supplemented with IL-2. On day 1, cells were transduced with the CAR Construct and cell density was adjusted to 0.5×10^6/ml and 10^6 cells were seeded into 12-well plates in the presence of vehicle, TWS119, or DCC-2036. On day 4, cells were transferred into 6-well plates and 2 ml of T cell media was added to each well. On day 6 another 2 ml of media was added to each well. On day 8, CAR T cells were analyzed on a flow cytometer for surface expression of phenotypic markers (CD62L, CCR7, and CD27) and exhaustion markers (PD-1 and Tim-3).
# To determine the effect of compound treatment on skewing towards a central memory phenotype, isolated CD8 T cells were activated in bulk on day 0 using anti-CD3/anti-CD28 beads in T cell media supplemented with IL-2. On day 1, cells were transduced with the CAR Construct 1 shown in FIG. 2 and cell density was adjusted to 0.5×10^6/ml and 10^6 cells were seeded into 12 well plates in the presence of vehicle (DMSO), TWS119 or DCC-2036 at the same concentrations. On day 4, cells were transferred into 6-well plates and 2 ml of media was added to each well. On day 6 another 2 ml of media was added to each well. On day 8, cells were analyzed on a flow cytometer for cell surface expression of CD27.
# The expression of CD27 observed with vehicle treatment was defined as an MFI (mean fluorescence intensity) of 1 and the relative MFI of cells treated with compound was calculated.
# [2] = test system: CAR-T cells co-cultured with irradiated K562 tumor cells that express CD19; test: In vitro serial killing/re-stimulation assay; details: relative to vehicle
# Excerpt: An informative clinical parameter that can in some contexts be indicative of likelihood of successful adoptive cell therapy in clinical trials is the ability and extent of expansion of the transferred cells in the patient post-treatment and/or persistence and continued function following initial expansion, e.g., in the context of continued exposure to antigen. The ability of engineered T cells to persist and continue expanding over multiple rounds of antigen stimulation can be indicative of such features and/or likelihood of in vivo function or clinical response. An in vitro serial killing/re-stimulation assay, where the T cells treated by each compound were evaluated for various functions, including expansion and ability to kill tumor cells expressing the target antigen in vitro over multiple rounds of exposure to and withdrawal from antigen, was used as a model system. Such assays were carried out on cells treated with or without compounds, to assess the impact of individual compounds on cell function after repeated encounter with antigen, and cell expansion or persistence in such contexts.
# CD8 T cells were activated, transduced, and expanded in the presence of DMSO, TWS119, or DCC-2036. At the end of the expansion, the CAR-T cells were cryopreserved. The serial re-stimulation assay was performed by thawing the CAR-T cells and co-culturing with irradiated K562 tumor cells that express CD19, the antigen recognized by the CAR. Prior to starting each round of killing, cell numbers were adjusted so that CAR-T cell numbers were substantially the same from the cultures generated with DMSO, TWS119, and DCC-2036 treatment respectively. An equal number of irradiated CD19-expressing K562 target cells were added to the different CAR-T cultures.
compound,measurement,setting,value
"CNC(=O)c1cc(Oc2ccc(NC(=O)Nc3cc(C(C)(C)C)nn3-c3ccc4ncccc4c3)c(F)c2)ccn1 [DCC-2036, Rebastinib]",CD8 Hit,viable CD8+ population,CD8
same,increase in the frequency of CAR-T cells expressing both CD62L and CCR7,"[1]; relative to vehicle (DMSO), FIG. 4A",2.3 fold
same,increase in the expression of the differentiation marker CD27 (relative MFI),"[1]; relative to vehicle (MFI defined as 1), FIG. 4B",2.2 fold
same,cell number expansion of CAR-T cells in rounds 3 and 4 of the serial re-stimulation assay,[2]; FIG. 3C,much higher than the vehicle control
same,total expansion in CAR-T cell number through all 4 rounds of the serial re-stimulation assay,[2]; FIG. 3D,much greater expansion relative to the vehicle control; also recorded: improves cell expansion
